According to paper PMC4620497 (Scientific Reports, 2015):

Legend:
[1] = biological target: T1, AMPK-alpha1 (Homo sapiens, UniProt Q13131); test: KINOMEscan panel screen; type: binding; settings: read-out: Percent Control(%)
T1 construct: purchased DiscoveRx KINOMEscan (Ambit Biosciences)

[2] = biological target: T2, BIKE (Homo sapiens, UniProt Q9NSY1); test: KINOMEscan panel screen; type: binding; settings: read-out: Percent Control(%)
T2 construct: purchased DiscoveRx KINOMEscan (Ambit Biosciences)

[3] = biological target: BTK (Homo sapiens, UniProt Q06187); test: KINOMEscan panel screen; type: binding; settings: read-out: Percent Control(%)
[4] = biological target: T3, CDK5 (Homo sapiens, UniProt Q00535); test: KINOMEscan panel screen; type: binding; settings: read-out: Percent Control(%)
T3 construct: purchased DiscoveRx KINOMEscan (Ambit Biosciences)

[5] = biological target: T4, CDKL5 (Homo sapiens, UniProt O76039); test: KINOMEscan panel screen; type: binding; settings: read-out: Percent Control(%)
T4 construct: purchased DiscoveRx KINOMEscan (Ambit Biosciences)
T4 sequence (O76039 whole entry): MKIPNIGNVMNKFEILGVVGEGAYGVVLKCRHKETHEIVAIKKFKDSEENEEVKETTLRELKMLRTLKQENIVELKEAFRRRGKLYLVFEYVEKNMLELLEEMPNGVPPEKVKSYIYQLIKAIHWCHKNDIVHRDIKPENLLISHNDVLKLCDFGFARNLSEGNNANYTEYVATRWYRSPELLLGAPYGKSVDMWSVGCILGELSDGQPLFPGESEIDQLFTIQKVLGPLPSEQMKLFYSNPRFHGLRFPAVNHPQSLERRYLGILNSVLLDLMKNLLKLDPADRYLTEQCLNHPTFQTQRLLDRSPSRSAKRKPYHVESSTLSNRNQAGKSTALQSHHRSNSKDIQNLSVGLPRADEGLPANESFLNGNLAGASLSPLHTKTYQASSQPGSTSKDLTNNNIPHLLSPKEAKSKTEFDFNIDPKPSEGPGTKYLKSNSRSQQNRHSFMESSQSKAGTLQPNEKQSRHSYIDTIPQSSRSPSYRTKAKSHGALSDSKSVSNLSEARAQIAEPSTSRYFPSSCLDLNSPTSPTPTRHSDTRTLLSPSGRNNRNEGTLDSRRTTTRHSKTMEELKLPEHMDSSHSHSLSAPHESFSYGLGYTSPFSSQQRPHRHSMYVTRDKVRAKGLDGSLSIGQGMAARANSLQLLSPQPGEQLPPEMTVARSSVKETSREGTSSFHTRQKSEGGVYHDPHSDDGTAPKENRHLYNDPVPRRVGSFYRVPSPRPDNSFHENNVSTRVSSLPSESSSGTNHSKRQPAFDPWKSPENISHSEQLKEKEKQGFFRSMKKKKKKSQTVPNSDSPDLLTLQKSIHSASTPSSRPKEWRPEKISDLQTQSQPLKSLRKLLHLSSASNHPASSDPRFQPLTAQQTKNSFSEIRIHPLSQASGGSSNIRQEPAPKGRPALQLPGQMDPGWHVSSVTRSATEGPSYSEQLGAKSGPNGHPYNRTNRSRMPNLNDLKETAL

[6] = biological target: T5, CSF1R-autoinhibited (Homo sapiens, UniProt P07333); test: KINOMEscan panel screen; type: binding; settings: read-out: Percent Control(%)
T5 construct: purchased DiscoveRx KINOMEscan (Ambit Biosciences)
T5 sequence (P07333 539-972 limits assumed): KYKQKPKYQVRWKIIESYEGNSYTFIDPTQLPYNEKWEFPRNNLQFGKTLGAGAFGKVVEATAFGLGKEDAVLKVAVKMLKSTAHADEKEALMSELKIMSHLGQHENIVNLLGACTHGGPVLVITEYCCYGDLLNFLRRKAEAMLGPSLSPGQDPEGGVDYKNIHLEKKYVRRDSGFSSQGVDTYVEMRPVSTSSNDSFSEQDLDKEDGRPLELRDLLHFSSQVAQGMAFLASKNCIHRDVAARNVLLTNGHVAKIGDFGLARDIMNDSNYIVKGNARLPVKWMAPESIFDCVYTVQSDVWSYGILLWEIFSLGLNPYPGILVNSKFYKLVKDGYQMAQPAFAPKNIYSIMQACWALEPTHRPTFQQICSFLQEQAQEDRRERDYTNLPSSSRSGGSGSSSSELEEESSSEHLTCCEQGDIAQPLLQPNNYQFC

[7] = biological target: T6, CSNK1E (Homo sapiens, UniProt P49674); test: KINOMEscan panel screen; type: binding; settings: read-out: Percent Control(%)
T6 construct: purchased DiscoveRx KINOMEscan (Ambit Biosciences)

[8] = biological target: T7, DDR2 (Homo sapiens, UniProt Q16832); test: KINOMEscan panel screen; type: binding; settings: read-out: Percent Control(%)
T7 construct: purchased DiscoveRx KINOMEscan (Ambit Biosciences)

[9] = biological target: T8, EPHB4 (Homo sapiens, UniProt P54760); test: KINOMEscan panel screen; type: binding; settings: read-out: Percent Control(%)
T8 construct: purchased DiscoveRx KINOMEscan (Ambit Biosciences)

[10] = biological target: T9, KIT (Homo sapiens, UniProt P10721); test: KINOMEscan panel screen; type: binding; settings: read-out: Percent Control(%)
T9 construct: DNA tag (qPCR read-out); purchased Ambit Biosciences (KINOMEscan service)

[11] = biological target: T10, KIT(L576P) (Homo sapiens, UniProt P10721, L576P); test: KINOMEscan panel screen; type: binding; settings: read-out: Percent Control(%)
T10 construct: purchased DiscoveRx KINOMEscan (Ambit Biosciences)

[12] = biological target: T11, LKB1 (Homo sapiens, UniProt Q15831); test: KINOMEscan panel screen; type: binding; settings: read-out: Percent Control(%)
T11 construct: purchased DiscoveRx KINOMEscan (Ambit Biosciences)

[13] = biological target: T12, MAP3K2 (Homo sapiens, UniProt Q9Y2U5); test: KINOMEscan panel screen; type: binding; settings: read-out: Percent Control(%)
T12 construct: purchased DiscoveRx KINOMEscan (Ambit Biosciences)

[14] = biological target: T13, MRCKA (Homo sapiens, UniProt Q5VT25); test: KINOMEscan panel screen; type: binding; settings: read-out: Percent Control(%)
T13 construct: purchased DiscoveRx KINOMEscan (Ambit Biosciences)

[15] = biological target: T14, MST2 (Homo sapiens, UniProt Q13188); test: KINOMEscan panel screen; type: binding; settings: read-out: Percent Control(%)
T14 construct: purchased DiscoveRx KINOMEscan (Ambit Biosciences)
T14 sequence (Q13188 whole entry): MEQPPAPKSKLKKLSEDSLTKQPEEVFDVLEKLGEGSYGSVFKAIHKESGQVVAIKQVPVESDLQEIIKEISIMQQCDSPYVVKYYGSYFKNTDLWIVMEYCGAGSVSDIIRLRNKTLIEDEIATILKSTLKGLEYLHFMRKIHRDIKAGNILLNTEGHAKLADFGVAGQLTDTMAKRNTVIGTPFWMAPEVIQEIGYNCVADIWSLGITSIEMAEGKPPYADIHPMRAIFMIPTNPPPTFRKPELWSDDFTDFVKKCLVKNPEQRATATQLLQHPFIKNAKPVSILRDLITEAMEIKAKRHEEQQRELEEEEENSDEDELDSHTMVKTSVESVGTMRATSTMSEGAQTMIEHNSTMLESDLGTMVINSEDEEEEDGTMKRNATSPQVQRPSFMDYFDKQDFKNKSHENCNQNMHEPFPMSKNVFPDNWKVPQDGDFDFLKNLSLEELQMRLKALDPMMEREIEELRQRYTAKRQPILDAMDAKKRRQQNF

[16] = biological target: T15, MYLK (Homo sapiens, UniProt Q15746); test: KINOMEscan panel screen; type: binding; settings: read-out: Percent Control(%)
T15 construct: purchased DiscoveRx KINOMEscan (Ambit Biosciences)
T15 sequence (Q15746 whole entry): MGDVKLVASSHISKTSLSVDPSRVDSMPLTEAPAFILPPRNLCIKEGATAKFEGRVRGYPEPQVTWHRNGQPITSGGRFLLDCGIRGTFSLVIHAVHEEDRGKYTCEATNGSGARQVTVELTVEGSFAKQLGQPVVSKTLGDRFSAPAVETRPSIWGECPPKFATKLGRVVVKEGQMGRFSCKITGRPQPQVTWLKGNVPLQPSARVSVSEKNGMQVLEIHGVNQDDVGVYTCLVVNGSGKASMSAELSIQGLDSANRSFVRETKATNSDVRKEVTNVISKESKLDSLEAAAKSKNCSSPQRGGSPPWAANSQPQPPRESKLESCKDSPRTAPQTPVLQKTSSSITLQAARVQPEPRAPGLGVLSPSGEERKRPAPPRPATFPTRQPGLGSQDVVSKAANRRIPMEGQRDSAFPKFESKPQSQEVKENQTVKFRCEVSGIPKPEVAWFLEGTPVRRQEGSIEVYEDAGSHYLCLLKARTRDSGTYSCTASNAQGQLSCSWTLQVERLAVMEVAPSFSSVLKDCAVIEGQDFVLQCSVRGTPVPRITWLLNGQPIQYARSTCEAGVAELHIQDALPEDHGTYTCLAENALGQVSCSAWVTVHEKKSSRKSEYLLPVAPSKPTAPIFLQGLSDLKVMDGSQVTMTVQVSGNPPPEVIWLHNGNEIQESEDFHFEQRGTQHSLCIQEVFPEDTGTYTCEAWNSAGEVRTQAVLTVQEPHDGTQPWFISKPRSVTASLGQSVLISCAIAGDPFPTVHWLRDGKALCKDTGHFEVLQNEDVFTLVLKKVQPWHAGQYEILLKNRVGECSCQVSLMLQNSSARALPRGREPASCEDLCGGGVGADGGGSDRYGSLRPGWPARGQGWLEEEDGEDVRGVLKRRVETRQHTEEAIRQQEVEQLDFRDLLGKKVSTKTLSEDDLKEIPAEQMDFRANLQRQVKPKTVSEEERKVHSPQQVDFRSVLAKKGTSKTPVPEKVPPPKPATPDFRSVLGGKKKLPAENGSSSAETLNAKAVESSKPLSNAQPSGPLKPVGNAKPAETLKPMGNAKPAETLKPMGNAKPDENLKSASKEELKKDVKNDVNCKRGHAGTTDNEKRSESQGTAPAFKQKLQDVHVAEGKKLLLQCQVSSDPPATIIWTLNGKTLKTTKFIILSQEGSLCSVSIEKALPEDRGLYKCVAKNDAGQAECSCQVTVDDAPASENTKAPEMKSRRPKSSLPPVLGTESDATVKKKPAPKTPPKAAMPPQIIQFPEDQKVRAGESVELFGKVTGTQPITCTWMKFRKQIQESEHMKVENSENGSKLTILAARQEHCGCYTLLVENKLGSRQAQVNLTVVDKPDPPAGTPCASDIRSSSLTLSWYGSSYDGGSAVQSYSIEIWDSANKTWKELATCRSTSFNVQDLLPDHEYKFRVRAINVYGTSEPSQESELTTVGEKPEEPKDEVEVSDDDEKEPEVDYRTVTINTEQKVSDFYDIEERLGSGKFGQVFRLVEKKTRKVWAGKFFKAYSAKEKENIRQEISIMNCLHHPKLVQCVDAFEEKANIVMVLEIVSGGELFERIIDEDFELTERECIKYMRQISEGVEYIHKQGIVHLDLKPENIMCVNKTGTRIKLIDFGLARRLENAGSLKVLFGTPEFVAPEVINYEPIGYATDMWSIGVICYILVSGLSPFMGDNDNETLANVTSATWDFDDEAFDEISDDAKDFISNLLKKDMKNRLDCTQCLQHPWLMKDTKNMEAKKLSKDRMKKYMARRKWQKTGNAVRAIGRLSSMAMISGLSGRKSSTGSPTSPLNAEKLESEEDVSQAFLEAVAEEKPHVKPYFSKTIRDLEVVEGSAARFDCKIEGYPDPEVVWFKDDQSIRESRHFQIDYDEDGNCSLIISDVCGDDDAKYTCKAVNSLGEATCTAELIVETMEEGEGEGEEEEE

[17] = biological target: T16, p38-alpha (Homo sapiens, UniProt Q16539); test: KINOMEscan panel screen; type: binding; settings: read-out: Percent Control(%)
T16 construct: purchased DiscoveRx KINOMEscan (Ambit Biosciences)

[18] = biological target: T17, PFCDPK1(P.falciparum) (Plasmodium falciparum, UniProt P62344); test: KINOMEscan panel screen; type: binding; settings: read-out: Percent Control(%)
T17 construct: purchased DiscoveRx KINOMEscan (Ambit Biosciences)

[19] = biological target: T18, PHKG2 (Homo sapiens, UniProt P15735); test: KINOMEscan panel screen; type: binding; settings: read-out: Percent Control(%)
T18 construct: purchased DiscoveRx KINOMEscan (Ambit Biosciences)

[20] = biological target: T19, PIK3CA (Homo sapiens, UniProt P42336); test: KINOMEscan panel screen; type: binding; settings: read-out: Percent Control(%)
T19 construct: purchased DiscoveRx KINOMEscan (Ambit Biosciences)
T19 sequence (P42336 whole entry): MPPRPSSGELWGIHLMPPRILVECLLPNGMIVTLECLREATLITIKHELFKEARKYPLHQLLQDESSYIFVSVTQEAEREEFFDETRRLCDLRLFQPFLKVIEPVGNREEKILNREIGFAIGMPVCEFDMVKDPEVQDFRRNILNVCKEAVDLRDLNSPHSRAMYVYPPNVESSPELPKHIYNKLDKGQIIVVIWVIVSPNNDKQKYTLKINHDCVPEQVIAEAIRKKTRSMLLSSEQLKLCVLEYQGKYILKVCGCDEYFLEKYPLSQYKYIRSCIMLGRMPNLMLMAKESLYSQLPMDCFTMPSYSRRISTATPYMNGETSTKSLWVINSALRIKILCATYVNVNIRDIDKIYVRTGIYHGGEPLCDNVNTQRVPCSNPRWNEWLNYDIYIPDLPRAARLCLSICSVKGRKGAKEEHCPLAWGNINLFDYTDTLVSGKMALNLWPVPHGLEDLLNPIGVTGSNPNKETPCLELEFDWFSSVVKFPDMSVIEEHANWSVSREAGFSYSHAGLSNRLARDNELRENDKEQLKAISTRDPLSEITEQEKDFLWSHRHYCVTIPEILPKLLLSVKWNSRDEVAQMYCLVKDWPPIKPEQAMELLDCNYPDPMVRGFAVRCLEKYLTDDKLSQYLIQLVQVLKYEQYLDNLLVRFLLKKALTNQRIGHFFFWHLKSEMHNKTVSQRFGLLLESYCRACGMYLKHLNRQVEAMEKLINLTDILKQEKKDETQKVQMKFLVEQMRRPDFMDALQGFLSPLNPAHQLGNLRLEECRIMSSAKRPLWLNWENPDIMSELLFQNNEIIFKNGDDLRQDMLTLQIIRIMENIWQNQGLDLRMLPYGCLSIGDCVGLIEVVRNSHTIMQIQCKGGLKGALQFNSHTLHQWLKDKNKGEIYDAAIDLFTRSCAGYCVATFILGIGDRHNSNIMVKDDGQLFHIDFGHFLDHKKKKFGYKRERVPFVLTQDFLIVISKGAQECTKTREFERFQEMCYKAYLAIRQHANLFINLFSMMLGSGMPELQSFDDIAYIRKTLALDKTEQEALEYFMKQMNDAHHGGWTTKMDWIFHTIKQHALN

[21] = biological target: T20, PKAC-beta (Homo sapiens, UniProt P22694); test: KINOMEscan panel screen; type: binding; settings: read-out: Percent Control(%)
T20 construct: purchased DiscoveRx KINOMEscan (Ambit Biosciences)

[22] = biological target: T21, PRKG1 (Homo sapiens, UniProt Q13976); test: KINOMEscan panel screen; type: binding; settings: read-out: Percent Control(%)
T21 construct: purchased DiscoveRx KINOMEscan (Ambit Biosciences)

[23] = biological target: T22, RIPK1 (Homo sapiens, UniProt Q13546); test: KINOMEscan panel screen; type: binding; settings: read-out: Percent Control(%)
T22 construct: purchased DiscoveRx KINOMEscan (Ambit Biosciences)

[24] = biological target: T23, RSK3(Kin.Dom.2-C-terminal) (Homo sapiens, UniProt Q15349); test: KINOMEscan panel screen; type: binding; settings: read-out: Percent Control(%)
T23 construct: RSK3(Kin.Dom.2-C-terminal); purchased DiscoveRx KINOMEscan (Ambit Biosciences)

[25] = biological target: T24, RSK4(Kin.Dom.1-N-terminal) (Homo sapiens, UniProt Q9UK32); test: KINOMEscan panel screen; type: binding; settings: read-out: Percent Control(%)
T24 construct: RSK4(Kin.Dom.1-N-terminal); purchased DiscoveRx KINOMEscan (Ambit Biosciences)

[26] = biological target: T25, SGK3 (Homo sapiens, UniProt Q96BR1); test: KINOMEscan panel screen; type: binding; settings: read-out: Percent Control(%)
T25 construct: purchased DiscoveRx KINOMEscan (Ambit Biosciences)

[27] = biological target: T26, SNARK (Homo sapiens, UniProt Q9H093); test: KINOMEscan panel screen; type: binding; settings: read-out: Percent Control(%)
T26 construct: purchased DiscoveRx KINOMEscan (Ambit Biosciences)

[28] = biological target: T27, STK35 (Homo sapiens, UniProt Q8TDR2); test: KINOMEscan panel screen; type: binding; settings: read-out: Percent Control(%)
T27 construct: purchased DiscoveRx KINOMEscan (Ambit Biosciences)

[29] = biological target: T28, TNK1 (Homo sapiens, UniProt Q13470); test: KINOMEscan panel screen; type: binding; settings: read-out: Percent Control(%)
T28 construct: purchased DiscoveRx KINOMEscan (Ambit Biosciences)

[30] = biological target: T29, TNK2 (Homo sapiens, UniProt Q07912); test: KINOMEscan panel screen; type: binding; settings: read-out: Percent Control(%)
T29 construct: purchased DiscoveRx KINOMEscan (Ambit Biosciences)

[31] = biological target: T30, WEE2 (Homo sapiens, UniProt P0C1S8); test: KINOMEscan panel screen; type: binding; settings: read-out: Percent Control(%)
T30 construct: purchased DiscoveRx KINOMEscan (Ambit Biosciences)

[32] = biological target: T31, YSK1 (Homo sapiens, UniProt O00506); test: KINOMEscan panel screen; type: binding; settings: read-out: Percent Control(%)
T31 construct: purchased DiscoveRx KINOMEscan (Ambit Biosciences)

[33] = biological target: T32, FLT3-wt (Homo sapiens, UniProt P36888); test: KINOMEscan kinase binding assay (Kd)
T32 construct: DNA tag (qPCR read-out); purchased Ambit Biosciences (KINOMEscan service)

[34] = biological target: LOK (Homo sapiens, UniProt O94804); test: KINOMEscan kinase binding assay (Kd)
[35] = biological target: T33, TIE2 (Homo sapiens, UniProt Q02763); test: KINOMEscan kinase binding assay (Kd)
T33 construct: purchased DiscoveRx KINOMEscan (Ambit Biosciences)

[36] = tested on: SU-DHL-6; test: MTT cell viability assay; settings: Homo sapiens, SU-DHL-6, 72 h
[37] = tested on: H441; test: MTT cell viability assay; settings: Homo sapiens, NCI-H441, 72 h
[38] = biological target: FLT3-D835H (Homo sapiens, UniProt P36888, D835H); test: KINOMEscan panel screen; type: binding; parameters: purchased DiscoveRx KINOMEscan (Ambit Biosciences); settings: read-out: Percent Control(%)
[39] = biological target: ERN1 (Homo sapiens, UniProt O75460); parameters: method as in earlier work; settings: Table S1; cited from earlier work
[40] = biological target: PAK1 (Homo sapiens, UniProt Q13153); parameters: method as in earlier work; settings: Table S1; cited from earlier work
[41] = tested on: ERK; parameters: method as in earlier work; settings: Table S1; cited from earlier work

CC(C)(C)c1cc(NC(=O)Nc2ccc(Oc3ncnc4[nH]ncc34)c(F)c2)no1 [SKLB-677, 1-(4-(1H-pyrazolo[3,4-d]pyrimidin-4-yloxy)-3-fluorophenyl)-3-(5-tert-butylisoxazol-3-yl)urea]
remaining binding at 10 µM [1]: 3%
remaining binding at 10 µM [2]: 89%
remaining binding at 10 µM [3]: 100%
remaining binding at 10 µM [4]: 4.2%
remaining binding at 10 µM [5]: 5%
remaining binding at 10 µM [6]: 0.1%
remaining binding at 10 µM [7]: 31%
remaining binding at 10 µM [8]: 61%
remaining binding at 10 µM [9]: 1%
remaining binding at 10 µM [10]: 0%
remaining binding at 10 µM [11]: 0%
remaining binding at 10 µM [12]: 96%
remaining binding at 10 µM [13]: 100%
remaining binding at 10 µM [14]: 100%
remaining binding at 10 µM [15]: 87%
remaining binding at 10 µM [16]: 40%
remaining binding at 10 µM [17]: 0%
remaining binding at 10 µM [18]: 26%
remaining binding at 10 µM [19]: 100%
remaining binding at 10 µM [20]: 100%
remaining binding at 10 µM [21]: 88%
remaining binding at 10 µM [22]: 86%
remaining binding at 10 µM [23]: 31%
remaining binding at 10 µM [24]: 19%
remaining binding at 10 µM [25]: 64%
remaining binding at 10 µM [26]: 46%
remaining binding at 10 µM [27]: 66%
remaining binding at 10 µM [28]: 0.95%
remaining binding at 10 µM [29]: 2.2%
remaining binding at 10 µM [30]: 37%
remaining binding at 10 µM [31]: 78%
remaining binding at 10 µM [32]: 35%
Kd [33]: 0.00074 µM
Kd [34]: 0.0051 µM
Kd [35]: 0.099 µM
IC50 [36]: 7.78 µM
IC50 [37]: > 10 µM
remaining binding at 10 µM [38]: 0%

O=C(Nc1ccc(Oc2ncnc3[nH]ncc23)cc1)Nc1ccc(Cl)c(C(F)(F)F)c1 [Compound 1, 1-(4-(1H-pyrazolo[3,4-d]pyrimidin-4-yloxy)phenyl)-3-(4-chloro-3-(trifluoromethyl)phenyl)urea]
IC50 [39]: > 10 µM
IC50 [40]: > 10 µM
IC50 [41]: > 10 µM
